Assay [1] concerns 5'-(GACAGCUGCUGUC)2-3' duplex (single 5'CUG/3'GUC) (RNA, mismatch bulge abasic) GACAGCUGCUGUC
Put plainly: To-Pro-1 dye displacement (fluorescence). The following applies: Na+ 200 mM NaCl, 8 mM NaH2PO4; To-Pro-1 (100 nM) displaced; Kd from competitive fit (Ki).

The subject of assay [2] is r(CUG)10 (RNA, repeat) CUGCUGCUGCUGCUGCUGCUGCUGCUGCUG
Description: in vitro Chem-CLIP (photo-cross-linking pull-down). The settings on record: covalent; 26 ± 7% pulled down at 100 μM.

Assay [3] concerns r(CUG)8 with GAAA hairpin loop (RNA, repeat) CCGCUGCUGCUGCUGCGAAAGCUGCUGCUGCUGCGG
Put plainly: in vitro Chem-CLIP (photo-cross-linking pull-down). The settings on record: covalent; 100 μM.

The subject of assay [4] is r(CUG)10 (RNA, repeat) CUGCUGCUGCUGCUGCUGCUGCUGCUGCUG
Put plainly: competitive Chem-CLIP. The following applies: competes with 50 μM of 1; 0 to 500 μM.

In assay [5] the test system is 5'-(GACAGCUGCUGUC)2-3' duplex (single 5'CUG/3'GUC) (RNA, mismatch bulge abasic) GACAGCUGCUGUC
Put plainly: NMR (WaterLOGSY, 1D 1H imino and aromatic). The settings on record: 10 mM Na2HPO4/NaH2PO4, pH 6.0, 0.05 mM EDTA.

Assay [6] shares this test system. Put plainly: fluorescence titration. The settings on record: Na+ 200 mM NaCl; 8 mM NaH2PO4, pH 7.0, 1 mM EDTA, 40 µg/mL BSA, room temperature; 100 nM dye.

Molecules are shown by their SMILES.

Consider `C#CCCC1(CCC(=O)NC2=Nc3cccc4cccc(c34)N2)N=N1`, for which the Kd in assay [1] turned out to be 1200 ± 200 nM. For the same compound, the binding entry in assay [2] and in assay [3] was “yes” throughout.
In the case of `CCC(=O)NC1=Nc2cccc3cccc(c23)N1`, the binding entry in assay [4] and in assay [5] was “yes” in each case. Moreover, the Kd in assay [1] was 1400 ± 300 nM.
For `C[n+]1c(C=C2C=CN(CCC[N+](C)(C)C)c3ccccc32)sc2ccccc21`, the dissociation constant Kd in assay [6] was determined as 31 ± 2 nM.
